Results as given in US20250345309A1, “IMMUNE HEALTH IMPROVERS” (Amazentis SA, priority 2024, published 2025).

What was measured:
PBMCs [1] = experiment: Mitochondrial analysis of PBMCs (Mitotracker Green, MitotrackerRedCMXROS, PGC-1α, Parkin); format: in vivo, human
Method: PBMCs were thawed as depicted above and cultured in T cell medium (RPMI (ThermoFisher Scientific) 10% FBS (South America origin), 10 mM Hepes (Sigma), 1× Non-Essential Amino Acid, 1 mM Sodium Pyruvate, 50 μM β-Mercaptoethanol, 100 U/ml penicillin, 100 μg/ml streptomycin and 2 mM Glutamax (ThermoFisher Scientific)) overnight. After washing, cells were reconstituted in T cell medium containing respective staining agent: for labelling of mitochondrial mass, Mitotracker Green (Invitrogen) was used at a concentration of 40 nM for 30 mins at 37° C. Mitochondrial membrane potential was assessed via MitotrackerRedCMXROS. Cells were then stained with a combination of CD3 vFlour 450, PE-Cy7 CD4, APC-Cy7 CD8, CCR7 APC, CD45RA FITC and Ghost Violet510. To assess expression of peroxisome proliferator-activated receptor gamma coactivator 1-alpha (PGC-1α), cells were rested for four hours after thawing, then stained with the panel above for 15 mins at 4° C. After washing in FACS buffer, cells were permeabilized and fixed using the eBioscience™ Foxp3/Transcription Factor Staining Buffer Set, followed by staining with PGC-1α (sc-518025; D-5; Santa Cruz) antibody. To assess the expression of Parkin, cells were first stained with CD4 BV786, CD8 PECF 594, CD3 BUV 395, CD45RA FITC, CD14 eF450 and live/dead 780, followed by permeabilization and fixation with transcription factor buffer set kit (BD Biosciences). For mitochondrial analysis, cells were finally fixed in 1% PFA and analyzed on a Cytek Aurora cytometer. Samples were unmixed using reference controls generated in combination with stained Ultracomp beads (Fisher Scientific, 01-2222-41).

PBMCs [2] = experiment: SCENITH mitochondrial dependency analysis of immune populations; format: in vivo, human; settings: d28, 1000 mg/day oral
Method: Single cell energetic metabolism by profiling translation inhibition (SCENITH) was used to determine metabolic dependencies of select immune populations, which was performed as described previously (R. J. Argüello et al. Cell metabolism […], 32, 1063-1075). SCENITH reagents kit (inhibitors, puromycin and antibodies) were obtained from www.scenith.com/try-it and used according to the provided protocol. In short, 0.3×10^6 PBMCs were treated for 15 min with Control (DMSO), 2-Deoxy-Glucose (2-DG; 100 mM), Oligomycin (O; 1 μM) and the combination of 2DG and Oligomycin (DGO) or Harringtonine (H; 2 μg/mL). Following metabolic inhibitors, Puromycin (final concentration 10 μg/mL) was added to cultures for 30 min. After puromycin treatment, cells were washed in PBMC was buffer and stained with the following antibodies for 15 min at 4° C.: PE-Cy7 CD4, APC Cy7 CD8, CD45RA AF700, vFkour 450 CD3, CCR7 APC, BV786 CD14 PercP5.5 CD19, PE-CF594 CD16; CD56 BV711, BV510 Viability dye.
Cells were fixed and permeabilized using the Foxp3 intracellular staining kit (Invitrogen eBioscience) for 1 h. Intracellular staining of puromycin and protein targets was performed for 1 h in diluted (10×) permeabilization buffer at 4° C. Finally, data acquisition was performed using the Cytek Aurora flow cytometer. Samples were unmixed using reference controls generated in combination with stained Ultracomp beads (Fisher Scientific, 01-2222-41) using the SpectroFlo Software. The unmixed FCS files were used for data processing and analysis using FlowJo (BD, version 10.8.1). Immune cell populations of interest were gated manually for downstream analysis. gMFI expression values for Puromycin were exported from FlowJo to calculate metabolic dependencies. The following calculations were used:
To further characterize the metabolic profile of immune cells on a single-cell resolution, we employed SCENITH, a flow-cytometry based strategy that uses incorporation of Puromycin to infer metabolic dependencies (see Argüello et al., SCENITH: A flow cytometry-based method to functionally profile energy metabolism with single cell resolution, 2020, Cell Metabolism, 32, 1063-1075).

monocytes = experiment: Phagocytosis assay (pHrodo E. coli Red BioParticles); format: in vivo, human; settings: ex vivo, d28, 1000 mg/day oral, compared with placebo cohort
Method: The pHrodo™ E. coli Red BioParticles® Phagocytosis Kit for Flow Cytometry (Invitrogen) was used to assess phagocytotic capacity of monocytes. The particles were inactivated, unopsonized Escherichia coli (K-12 strain) that enables measurement of phagocytic activity based on acidification of particles as they are ingested. Thawed PBMCs were immediately used for analysis. 25 μL of E. coli Red BioParticles® were added to 0.25×10^6 PBMCs in 225 μl PBMC medium. As a negative control, 20 μL of PBS were added to 225 μl of PBMCs. Incubation was performed at 37° C. for 45 min, followed by immediate transfer on ice. Cells were then washed in FACS buffer, centrifuged at 1500 rpm for 5 min, followed by another wash step. Cells were stained for 10 min at 4° C. After washing, cells were reconstituted in PBS and subjected to analysis using a Cytek Aurora fow cytometer. Monocytes were identified as CD3−, CD16+ cells.

[3] = human, in vivo
[4] = after 28 days, 1000 mg/day oral

SMILES: O=c1oc2cc(O)ccc2c2ccc(O)cc12 [Urolithin A]
- Mitochondrial content in several CD8+ subsets (TN, TEM, TCM, TEFF) (PBMCs [1]; [4]): Increased
- Mitochondrial content of CD4+ cells (PBMCs [1]; [4]): no significant change
- Mitochondrial mass: proportion of MTGHi cells in CD8+ cells (PBMCs [1]; after 28 days, 1000 mg/day oral, absent in placebo): increased
- PGC-1α expression in CD8+ cells (PBMCs [1]; after intervention period (d28), 1000 mg/day oral, no change with placebo): stronger expression
- Mitochondrial membrane potential (MMP) in CD8+ cells (PBMCs [1]; d28, 1000 mg/day oral): significantly lower
- PGC-1α in CD4+ cells (PBMCs [1]; d28, 1000 mg/day oral): no significant induction
- Reduction of MMP in CD4+ cells (PBMCs [1]; d28, 1000 mg/day oral): absent
- Reduction of MMP in CD8 subsets (PBMCs [1]; d28, 1000 mg/day oral): retained
- Parkin protein expression (PBMCs [1]; study visits at seven days or 28 days, 1000 mg/day oral): Change in Parkin protein expression was detected
- Capacity to shift to OXPHOS when deprived of glycolysis (PBMCs [2]; CD8+ cells): stronger capacity
- Dependence on glucose metabolism (PBMCs [2]; CD8+ cells): less dependence
- Mitochondrial capacity in CD8+ subsets TN, TEM, TCM, TEEF (PBMCs [2]): potentiation
- Mitochondrial capacity in total CD8+ cells (PBMCs [2]): potentiates
- Monocyte phagocytosis of E. coli particles (monocytes): significantly enhanced
- Intensity of adverse events noted during the study [3]: all mild
